Measured values taken from ChEMBL document CHEMBL3885861, “Open TG-GATES”.

Species on record: Rattus norvegicus
Test: Open TG-GATES - Regimen: Single
Format: toxicity, organism-based, Sprague-Dawley
Set-up: regimen Single, gender Male, age 6 weeks
Conditions: in vivo, po, route gavage; for KIDNEY_L / KIDNEY_R / KIDNEY_TOTAL: tissue Kidney; for ALP / ALT / BUN / CRE / DBIL / GLC / IP / K / Na / RALB / TBIL / TG / TP / gamma-GTP / PL: tissue Plasma; for LIVER: tissue Liver
[1] = 10 mg/kg, 3 h, tissue Blood, dose level Middle
[2] = 10 mg/kg, 3 h, dose level Middle
[3] = 10 mg/kg, 6 h, dose level Middle
[4] = 10 mg/kg, 6 h, tissue Blood, dose level Middle
[5] = 10 mg/kg, 9 h, dose level Middle
[6] = 10 mg/kg, 9 h, tissue Blood, dose level Middle
[7] = 10 mg/kg, 24 h, dose level Middle
[8] = 10 mg/kg, 24 h, tissue Blood, dose level Middle
[9] = 30 mg/kg, 3 h, tissue Blood, dose level High
[10] = 30 mg/kg, 6 h, tissue Blood, dose level High
[11] = 30 mg/kg, 9 h, tissue Blood, dose level High
[12] = 30 mg/kg, 24 h, dose level High
[13] = 30 mg/kg, 24 h, tissue Blood, dose level High

For `CNCCC(Oc1ccc(C(F)(F)F)cc1)c1ccccc1.Cl` (centres undefined) [FLUOXETINE HYDROCHLORIDE], the Bas [1] was 0%, the Eos [1] was 1.2% and the Ht [1] was 41.6%. It also gave a Lym [1] of 68.4%, an MCHC [1] of 32.1% and a Ret [1] of 8.7%. It also gave a WBC [1] of 85.2 x10_2/uL, a KIDNEY_L [2] of 1 g and a KIDNEY_R [2] of 1 g. The KIDNEY_TOTAL [2] was 2 g, the ALP [2] was 1509 IU/L and the ALT [2] was 36.6 IU/L. The BUN [2] was 13.8 mg/dL, the CRE [2] was 0.4 mg/dL and the DBIL [2] was 0.014 mg/dL. It also gave a GLC [2] of 201.4 mg/dL, an IP [2] of 10.3 mg/dL and a K [2] of 5.2 meq/L. It also gave a Na [2] of 138.6 meq/L, an RALB [2] of 4.1 g/dL and a TBIL [2] of 0.042 mg/dL. It also gave a TG [2] of 128.6 mg/dL, a TP [2] of 5.9 g/dL and a gamma-GTP [2] of 0 IU/L. For the same molecule, the TERMINAL_BW [3] was 215.2 g, the Bas [4] was 0% and the Eos [4] was 1%. It also gave a Ht [4] of 40.8%, a Lym [4] of 70% and an MCH [4] of 21.9 pg. The MCHC [4] was 32.6%, the Ret [4] was 8.2% and the WBC [4] was 96.4 x10_2/uL. It also gave a KIDNEY_L [3] of 0.9 g, a KIDNEY_R [3] of 1 g and a KIDNEY_TOTAL [3] of 1.9 g. The LIVER [3] was 10 g, the ALP [3] was 1142 IU/L and the ALT [3] was 32.8 IU/L. For the same molecule, the BUN [3] was 10.8 mg/dL, the CRE [3] was 0.4 mg/dL and the DBIL [3] was 0.008 mg/dL. For the same molecule, the GLC [3] was 193.8 mg/dL, the IP [3] was 9.7 mg/dL and the K [3] was 4.9 meq/L. It also gave a Na [3] of 137.4 meq/L, an RALB [3] of 3.9 g/dL and a TBIL [3] of 0.038 mg/dL. The TG [3] was 85.8 mg/dL, the TP [3] was 5.4 g/dL and the gamma-GTP [3] was 1 IU/L. It also gave a TERMINAL_BW [5] of 214.8 g, a Bas [6] of 0% and an Eos [6] of 1%. It also gave a Ht [6] of 40.2%, a Lym [6] of 75.6% and an MCHC [6] of 32.5%. For the same molecule, the Ret [6] was 7.8%, the WBC [6] was 95 x10_2/uL and the KIDNEY_L [5] was 1 g. It also gave a KIDNEY_R [5] of 1 g, a KIDNEY_TOTAL [5] of 1.9 g and an LIVER [5] of 9.2 g. The ALP [5] was 1045.4 IU/L, the ALT [5] was 28.8 IU/L and the BUN [5] was 10.6 mg/dL. For the same molecule, the CRE [5] was 0.4 mg/dL, the DBIL [5] was 0.006 mg/dL and the GLC [5] was 191 mg/dL. The IP [5] was 10.8 mg/dL, the K [5] was 5 meq/L and the Na [5] was 137.9 meq/L. The PL [5] was 135 mg/dL, the RALB [5] was 3.8 g/dL and the TBIL [5] was 0.04 mg/dL. For the same molecule, the TG [5] was 41.4 mg/dL, the TP [5] was 5.3 g/dL and the gamma-GTP [5] was 0.6 IU/L. The TERMINAL_BW [7] was 227.3 g, the Bas [8] was 0% and the Eos [8] was 1%. For the same molecule, the Ht [8] was 41.2%, the Lym [8] was 76.2% and the MCHC [8] was 32.6%. For the same molecule, the Ret [8] was 7.7%, the WBC [8] was 100.4 x10_2/uL and the KIDNEY_L [7] was 1 g. The KIDNEY_R [7] was 1 g, the KIDNEY_TOTAL [7] was 1.9 g and the LIVER [7] was 11 g. For the same molecule, the ALP [7] was 1378 IU/L, the ALT [7] was 34.6 IU/L and the BUN [7] was 16.4 mg/dL. It also gave a CRE [7] of 0.4 mg/dL, a DBIL [7] of 0.01 mg/dL and a GLC [7] of 192.6 mg/dL. The IP [7] was 7.9 mg/dL, the K [7] was 5.1 meq/L and the Na [7] was 138.1 meq/L. It also gave an RALB [7] of 3.9 g/dL, a TBIL [7] of 0.034 mg/dL and a TG [7] of 152.6 mg/dL. For the same molecule, the TP [7] was 5.5 g/dL, the gamma-GTP [7] was 1 IU/L and the TERMINAL_BW (30 mg/kg, 3 h, dose level High) was 214.6 g. It also gave a Bas [9] of 0%, an Eos [9] of 1.2% and a Ht [9] of 39.9%. For the same molecule, the Lym [9] was 67.4%, the MCHC [9] was 32.6% and the Ret [9] was 8.7%. It also gave a WBC [9] of 79.4 x10_2/uL, a KIDNEY_L (30 mg/kg, 3 h, dose level High) of 0.9 g and a KIDNEY_R (30 mg/kg, 3 h, dose level High) of 1 g. The KIDNEY_TOTAL (30 mg/kg, 3 h, dose level High) was 1.9 g, the LIVER (30 mg/kg, 3 h, dose level High) was 9.8 g and the ALP (30 mg/kg, 3 h, dose level High) was 1364.6 IU/L. The ALT (30 mg/kg, 3 h, dose level High) was 36.4 IU/L, the BUN (30 mg/kg, 3 h, dose level High) was 10.6 mg/dL and the CRE (30 mg/kg, 3 h, dose level High) was 0.4 mg/dL. For the same molecule, the DBIL (30 mg/kg, 3 h, dose level High) was 0.01 mg/dL, the GLC (30 mg/kg, 3 h, dose level High) was 201.4 mg/dL and the IP (30 mg/kg, 3 h, dose level High) was 10.1 mg/dL. It also gave a K (30 mg/kg, 3 h, dose level High) of 4.4 meq/L, a Na (30 mg/kg, 3 h, dose level High) of 138.6 meq/L and an RALB (30 mg/kg, 3 h, dose level High) of 4.1 g/dL. The TBIL (30 mg/kg, 3 h, dose level High) was 0.048 mg/dL, the TG (30 mg/kg, 3 h, dose level High) was 77.8 mg/dL and the TP (30 mg/kg, 3 h, dose level High) was 5.7 g/dL. It also gave a gamma-GTP (30 mg/kg, 3 h, dose level High) of 0.2 IU/L, a TERMINAL_BW (30 mg/kg, 6 h, dose level High) of 217.1 g and a Bas [10] of 0%. The Eos [10] was 1.2%, the Ht [10] was 42% and the Lym [10] was 73.2%. For the same molecule, the MCHC [10] was 32.3%, the Ret [10] was 6.9% and the WBC [10] was 82.6 x10_2/uL. It also gave a KIDNEY_L (30 mg/kg, 6 h, dose level High) of 0.9 g, a KIDNEY_R (30 mg/kg, 6 h, dose level High) of 1 g and a KIDNEY_TOTAL (30 mg/kg, 6 h, dose level High) of 1.9 g. It also gave an LIVER (30 mg/kg, 6 h, dose level High) of 9.3 g, an ALP (30 mg/kg, 6 h, dose level High) of 1193 IU/L and an ALT (30 mg/kg, 6 h, dose level High) of 31 IU/L. For the same molecule, the BUN (30 mg/kg, 6 h, dose level High) was 9.2 mg/dL, the CRE (30 mg/kg, 6 h, dose level High) was 0.4 mg/dL and the DBIL (30 mg/kg, 6 h, dose level High) was 0.01 mg/dL. It also gave a GLC (30 mg/kg, 6 h, dose level High) of 198.8 mg/dL, an IP (30 mg/kg, 6 h, dose level High) of 9.9 mg/dL and a K (30 mg/kg, 6 h, dose level High) of 5.2 meq/L. It also gave a Na (30 mg/kg, 6 h, dose level High) of 137.7 meq/L, a PL (30 mg/kg, 6 h, dose level High) of 134.4 mg/dL and an RALB (30 mg/kg, 6 h, dose level High) of 3.8 g/dL. It also gave a TBIL (30 mg/kg, 6 h, dose level High) of 0.038 mg/dL, a TG (30 mg/kg, 6 h, dose level High) of 47.2 mg/dL and a TP (30 mg/kg, 6 h, dose level High) of 5.4 g/dL. The gamma-GTP (30 mg/kg, 6 h, dose level High) was 1 IU/L, the TERMINAL_BW (30 mg/kg, 9 h, dose level High) was 211.4 g and the Bas [11] was 0%. For the same molecule, the Eos [11] was 0.8%, the Ht [11] was 40.9% and the Lym [11] was 77.8%. For the same molecule, the MCHC [11] was 32.4%, the Ret [11] was 7.1% and the WBC [11] was 90.6 x10_2/uL. The KIDNEY_L (30 mg/kg, 9 h, dose level High) was 0.9 g, the KIDNEY_R (30 mg/kg, 9 h, dose level High) was 1 g and the KIDNEY_TOTAL (30 mg/kg, 9 h, dose level High) was 1.9 g. For the same molecule, the LIVER (30 mg/kg, 9 h, dose level High) was 9 g, the ALP (30 mg/kg, 9 h, dose level High) was 1165 IU/L and the ALT (30 mg/kg, 9 h, dose level High) was 28.8 IU/L. The BUN (30 mg/kg, 9 h, dose level High) was 8.4 mg/dL, the CRE (30 mg/kg, 9 h, dose level High) was 0.4 mg/dL and the DBIL (30 mg/kg, 9 h, dose level High) was 0.01 mg/dL. It also gave a GLC (30 mg/kg, 9 h, dose level High) of 202.8 mg/dL, an IP (30 mg/kg, 9 h, dose level High) of 11.1 mg/dL and a K (30 mg/kg, 9 h, dose level High) of 5.1 meq/L. For the same molecule, the Na (30 mg/kg, 9 h, dose level High) was 138.2 meq/L, the PL (30 mg/kg, 9 h, dose level High) was 145.2 mg/dL and the RALB (30 mg/kg, 9 h, dose level High) was 3.9 g/dL. It also gave a TBIL (30 mg/kg, 9 h, dose level High) of 0.048 mg/dL, a TG (30 mg/kg, 9 h, dose level High) of 53 mg/dL and a TP (30 mg/kg, 9 h, dose level High) of 5.4 g/dL. It also gave a gamma-GTP (30 mg/kg, 9 h, dose level High) of 0.2 IU/L, a TERMINAL_BW [12] of 222.3 g and a Bas [13] of 0%. For the same molecule, the Eos [13] was 1%, the Ht [13] was 40.1% and the Lym [13] was 75.4%. It also gave an MCHC [13] of 32.6%, a Ret [13] of 7.8% and a WBC [13] of 81 x10_2/uL. For the same molecule, the KIDNEY_L [12] was 1 g, the KIDNEY_R [12] was 1 g and the KIDNEY_TOTAL [12] was 2 g. For the same molecule, the LIVER [12] was 10.5 g, the ALP [12] was 1406.6 IU/L and the ALT [12] was 31 IU/L. It also gave a CRE [12] of 0.4 mg/dL, a DBIL [12] of 0.01 mg/dL and a GLC [12] of 200 mg/dL. For the same molecule, the IP [12] was 8 mg/dL, the K [12] was 5.2 meq/L and the Na [12] was 138.1 meq/L. The RALB [12] was 4 g/dL, the TBIL [12] was 0.028 mg/dL and the TG [12] was 100.4 mg/dL. For the same molecule, the TP [12] was 5.7 g/dL and the gamma-GTP [12] was 1 IU/L.
